What was measured:
[1] = tested on: uninephrectomized db/db mice; assay: Diabetic nephropathy in uninephrectomized db/db mice, 8 week treatment starting 4 weeks after the uninephrectomy; format: in vivo; conditions: 8 weeks starting 4 weeks after uninephrectomy
Description: Male 5-week-old BKS.Cg-+Lepr^db/+Lepr^db (db/db) mice were purchased from CLEA Japan, Inc. All mice were fed with a standard diet (CE-2, CLEA Japan, Inc.) and tap water ad libitum.
Compound A was obtained from Takeda GmbH, Konstanz, Germany. Irbesartan was purchased from LKT Laboratories, Inc (USA).
In 6 week old male db/db mice an unilateral nephrectomy was performed. Under the anesthesia with isoflurane inhalation, the right kidney was removed from the mice. After 4-week recovery period, blood samples were obtained by the puncture of facial vein and blood level of glycosylated hemoglobin (GHb) was measured by automated HPLC-based GHb analyzer (HLC-723 G8, TOSOH, Japan). After the separation of plasma samples by centrifugation, also plasma levels of glucose (PG) were measured by Autoanalyzer 7180 (Hitachi, Japan). Urine samples were collected for a 8 h time-period using metabolic cages and urine creatinine level was measured by Autoanalyzer 7180. After desaltation of urine samples with PD MiniTrap G-25 column (GE healthcare, UK), urinary levels of albumin were measured by ELISA, and urinary albumin/creatinine ratio (UACR) was calculated.
Compound A (1, 3 and 10 mg/kg, QD), roflumilast (3 mg/kg, QD) and irbesartan (50 mg/kg, QD) were suspended in 0.5% methyl cellulose solution and orally administered to mice for 8 weeks starting 4 weeks after the uninephrectomy.
At the end of the 8 weeks once daily administration blood, plasma and urine samples were obtained according to the same methods as described above. GHb, PG, urinary creatinine and albumin were measured and UACR was calculated. Body weight (BW) was measured every week during the treatment.
For evaluation of the effects of Compound A, statistical differences between vehicle- and Compound A treated groups were analyzed with two-tailed Williams' test for PG and BW and two-tailed Shirley-Williams' test for UACR and GHb. The P-values less than 0.05 were considered statistically significant in two-tailed Williams' test or Shirley-Williams' test.
For roflumilast and irbesartan, statistical differences between vehicle- and compounds-treated groups were analyzed with Student's t-test for GHb, PG and BW and Welch test for UACR. The P-values less than 0.05 were considered statistically significant in Student's t-test and Welch test.

[2] = tested on: diet-induced obese (DIO) mice; assay: Body weight, fat and lean mass, 4 weeks treatment in diet-induced obese (DIO) mice; format: in vivo; conditions: for body weight change from pretreatment (Day 0): mean ±S.D.
Description: Male C57BL/6J mice were obtained from CLEA Japan, Inc. The mice were fed High fat diet D12451 (Research diets, Inc) from 5 week to 54-week old and water ad libitum.
All mice were housed individually in animal cages and used for the study after 2 weeks of acclimation period. Animal groups (n=7) were treated with either vehicle (0.5 w/v % methylcellulose, p.o.) or Compound A (1 mg/kg or 3 mg/kg, p.o. suspension in 0.5w/v % methylcellulose solution) in the evening once a day for 4 weeks from 50 weeks of age. Body weight was measured 2 or 3 times per week. Regarding body composition fast mass and lean mass were measured.
Body composition (fat mass and lean mass) was measured by Echo-MRI-900 (ALOKA Japan).
All data are presented as mean ±S.D. For evaluation of the effects of Compound A, statistical significances between vehicle (p.o.) and Compound A treated groups were analysed with one-tailed Williams' test or Shirley-Williams test when the variances among the groups were homogeneous or heterogeneous, respectively. The p-values less than 0.025 were considered statistically significant in one-tailed Williams' test or Shirley-Williams test. Body weight change from pretreatment (Day 0) was calculated using the following formula: [(BW−BW at Day 0)/BW at Day 0]×100.

human mesangial cells = assay: Intracellular cAMP level in human mesangial cells (AlphaScreen cAMP functional assay); format: cell-based; conditions: co-treatment with forskolin 1 μM
Description: Human mesangial cells were purchased from DS Pharma Biomedical (US). Compound A was obtained from Takeda GmbH, Konstanz, Germany. Forskolin and dimethyl sulfoxide (DMSO) were purchased from Wako Pure Chemical Industries, Ltd (Japan). Recombinant human TGF-β was purchased from R&D systems (USA).
On day 0, human mesangial cells were seeded at a cell density of 2×10^5 cells/well in CSC complete medium (Cell Systems, USA) on type 1 collagen-coated 24-well plate (AGC TECHNO GLASS Co. Ltd., Japan) in an atmosphere of 95% air and 5% CO2 at 37° C. On day 1, the cells were serum starved with CSC medium which is not containing serum and growth factors. On day 2, Compound A at final concentrations of 0.001, 0.01, 0.1, 1 and 10 μM or DMSO (control) was added to the culture medium. […]
For evaluation of the effects of Compound A on intracellular cAMP level, statistical differences between DMSO-treatment and Compound A treatment groups were analyzed with one-tailed Williams' test. For the evaluation of the effects of Compound A on mRNA expression levels, statistical differences between forskolin/TGF-β-treatment and Compound A treatment groups were analyzed with one-tailed Williams' test. To confirm the mRNA induction by TGF-β, mRNA expression levels between untreated and TGF-β-treated group were analyzed by Students t-test. […]

SMILES: CCOc1cc2c(cc1OC)C(c1ccc(=O)n(C)c1)=N[C@@H]1CC[C@@H](O)C[C@H]21 [Compound A, 5-((2R,4aR,10bR)-9-Ethoxy-2-hydroxy-8-methoxy-1,2,3,4,4a,10b-hexahydro-phenanthridin-6-yl)1-methyl-1H-pyridin-2-one]
- effect on increase of urinary albumin/creatinine ratio (UACR) ([1]; 1 mg/kg QD oral): significantly suppressed the increase of UACR
- effect on increase of urinary albumin/creatinine ratio (UACR) ([1]; 3 mg/kg QD oral): almost completely inhibited the increase of UACR
- effect on body weight ([1]; 10 mg/kg QD oral): slightly, but statistically significantly, suppressed the increase of body weight
- effect on increase of urinary albumin/creatinine ratio (UACR) ([1]; 10 mg/kg QD oral): almost completely inhibited the increase of UACR
- effect on blood level of glycosylated hemoglobin (GHb) ([1]; 1, 3 and 10 mg/kg QD oral): significantly inhibited the elevation of GHb and PG in a dose-dependent manner
- effect on plasma levels of glucose (PG) ([1]; 1, 3 and 10 mg/kg QD oral): significantly inhibited the elevation of GHb and PG in a dose-dependent manner
- body weight reduction corrected with vehicle (p.o.)-treated body weight change ([2]; 1 mg/kg p.o. once a day): −8.7±3.5%
- body weight change from pretreatment (Day 0) ([2]; 1 mg/kg p.o. once a day): −4.9±3.5%
- body weight change from pretreatment (Day 0) ([2]; 3 mg/kg p.o. once a day): −17.2±4.0%
- effect on fat mass ([2]; 1 and 3 mg/kg p.o. once a day): dose dependently and significantly decreased fat mass
- effect on lean mass ([2]; 1 and 3 mg/kg p.o. once a day): without affecting lean mass
- effect on intracellular cAMP accumulation (human mesangial cells; 0.001-10 μM): further enhanced intracellular cAMP accumulation in a concentration dependent manner
- concentration at which the significant effect on intracellular cAMP accumulation was observed (human mesangial cells): ≥ 0.1 µM
